# Results from patent US20220089609A1, “SUBSTITUTED QUINAZOLINONE DERIVATIVES AND THEIR USE AS POSITIVE ALLOSTERIC MODULATORS OF MGLUR4” (DOMAIN THERAPEUTICS, priority 2018, published 2022).
# pEC50: −log10 of the molar value. Values joined by “and” are separate entries in the source; they are usually repeats but may differ in a detail not shown here. Equal entries are not always repeated. Structures can show the parent of a compound that is named as a salt.
# Key:
# [1] = target: T1, human mGluR4 (hmGluR4) (Homo sapiens, UniProt Q14833); assay: Calcium assay EC50 determination, positive allosteric modulator activity on hmGluR4 transiently over-expressed in HEK-293 cells; format: cell-based; settings: PAM mode with EC20 glutamate; hmGluR4 in HEK-293 cells; intracellular calcium (Fluo4AM); read-out: mGluR4 positive allosteric modulator activity, half maximal effective concentration (EC50)
# T1 construct: expressed in transfected cells; host or cells: HEK-293 cells, transient co-transfection by electroporation
# Outline: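 HEK-293 cells transiently co-transfected with hmGluR4, chimeric G protein and glutamate transporters; Fluo4AM calcium read (ex 485/em 525 nm) on FLIPR Tetra. Compound alone 10 min for agonism, then EC20 glutamate with 3 min recording for PAM activity, versus buffer or EC20 glutamate basal.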
# T1 sequence (Q14833 33-912): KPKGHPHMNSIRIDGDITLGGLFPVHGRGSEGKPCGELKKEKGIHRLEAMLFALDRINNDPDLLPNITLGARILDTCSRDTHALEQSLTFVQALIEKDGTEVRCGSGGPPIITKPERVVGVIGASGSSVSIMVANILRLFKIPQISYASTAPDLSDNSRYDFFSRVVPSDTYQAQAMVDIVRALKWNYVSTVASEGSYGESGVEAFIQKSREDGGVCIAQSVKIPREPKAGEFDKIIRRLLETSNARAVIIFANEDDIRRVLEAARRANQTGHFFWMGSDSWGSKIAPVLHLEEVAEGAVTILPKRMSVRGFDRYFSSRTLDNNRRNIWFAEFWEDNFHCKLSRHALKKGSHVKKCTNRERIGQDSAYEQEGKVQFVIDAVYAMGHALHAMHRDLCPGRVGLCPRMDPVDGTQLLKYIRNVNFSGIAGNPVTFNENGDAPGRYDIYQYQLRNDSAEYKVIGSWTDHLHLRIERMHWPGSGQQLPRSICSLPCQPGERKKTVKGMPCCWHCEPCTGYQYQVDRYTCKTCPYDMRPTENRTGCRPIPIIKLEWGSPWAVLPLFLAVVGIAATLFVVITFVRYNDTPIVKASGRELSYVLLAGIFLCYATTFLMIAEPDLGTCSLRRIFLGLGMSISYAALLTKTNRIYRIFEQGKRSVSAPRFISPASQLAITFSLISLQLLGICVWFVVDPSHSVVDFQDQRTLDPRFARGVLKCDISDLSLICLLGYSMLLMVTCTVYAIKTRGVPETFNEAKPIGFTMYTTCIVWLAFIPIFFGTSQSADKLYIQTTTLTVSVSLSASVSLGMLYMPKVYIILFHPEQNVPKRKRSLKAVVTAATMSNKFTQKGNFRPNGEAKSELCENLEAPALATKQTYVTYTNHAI
SMILES,melting point,pEC50 [1]
"Cc1cc(CN2CCC(C(=O)N(C)C)CC2)cc2c(=O)[nH]c(-c3cc4sccc4cn3)nc12 (as salt: hydrochloride) [Compound 156, N,N-Dimethyl-14(8-methyl-4-oxo-2-(thieno[3,2-c]pyridin-6-yl)-3,4-dihydroquinazolin-6-yl)methyl)piperidine-4-carboxamide hydrochloride]",215 to 230 °C,–
"COCC1CCN(Cc2cc(C)c3nc(-c4cc5sccc5cn4)[nH]c(=O)c3c2)CC1 (as salt: hydrochloride) [Compound 157, 6-((4-(Methoxymethyl)piperidin-1-yl)methyl)-8-methyl-2-(thieno[3,2-c]pyridin-6-yl)quinazolin-4(3H)-one hydrochloride]",200 to 210 °C,–
"O=c1[nH]c(-c2cc3cccn3cn2)nc2ccc(OCCCc3ccncc3)cc12 [Compound 1, 6-(3-pyridin-4-yl-propoxy)-2-pyrrolo[1,2-c]pyrimidin-3-yl-3H-quinazolin-4-one]",202 to 206 °C,6.00 to 7.00
"Cl.O=c1[nH]c(-c2cc(C(F)(F)F)ccn2)nc2ccc(OCCCc3ccncc3)cc12 [Compound 9, 6-(3-Pyridin-4-yl-propoxy)-2-(4-trifluoromethyl-pyridin-2-yl)-3H-quinazolin-4-one hydrochloride]",239 to 245 °C,6.00 to 7.00 and > 6.00
"Cl.O=c1[nH]c(-c2ccc(C(F)(F)F)cn2)nc2ccc(OCCCc3ccncc3)cc12 [Compound 10, 6-[3-(4-pyridyl)propoxy]-2-[5-(trifluoromethyl)-2-pyridyl]-3H-quinazolin-4-one hydrochloride]",> 250 °C,6.00 to 7.00
"COCCOc1ccc2nc(-c3cc4cccn4cn3)[nH]c(=O)c2c1 [Compound 34, 6-(2-Methoxy-ethoxy)-2-pyrrolo[1,2-c]pyrimidin-3-yl-3H-quinazolin-4-one]",181 to 187 °C,< 5.00
"Cl.O=c1[nH]c(-c2cc3sccc3cn2)nc2ccc(OCCN3CCOCC3)cc12 [Compound 35, 6-(2-Morpholin-4-yl-ethoxy)-2-thieno[3,2-c]pyridin-6-yl-3H-quinazolin-4-one hydrochloride]",> 250 °C,5.00 to 6.00
"COCCOc1ccc2nc(-c3cc4sccc4cn3)[nH]c(=O)c2c1 [Compound 36, 6-(2-Methoxy-ethoxy)-2-thieno[3,2-c]pyridin-6-yl-3H-quinazolin-4-one]",209 to 213 °C,< 5.00
"CC(=O)N1CCC(COc2ccc3nc(-c4cc5ccsc5cn4)[nH]c(=O)c3c2)CC1 [Compound 47, 6-(1-Acetyl-piperidin-4-ylmethoxy)-2-thieno[2,3-c]pyridin-5-yl-3H-quinazolin-4-one]",> 250 °C,6.00 to 7.00
"CCC(=O)N1CCC(COc2ccc3nc(-c4cc5ccsc5cn4)[nH]c(=O)c3c2)CC1 [Compound 48, 6-(1-Propionyl-piperidin-4-ylmethoxy)-2-thieno[2,3-c]pyridin-5-yl-3H-quinazolin-4-one]",234 to 239 °C,6.00 to 7.00
"Cl.O=c1[nH]c(-c2cc(C(F)(F)F)ccn2)nc2ccc(OCCCc3ccncc3)nc12 [Compound 67, 6-(3-Pyridin-4-yl-propoxy)-2-(4-trifluoromethyl-pyridin-2-yl)-3H-pyrido[3,2-d]pyrimidin-4-one hydrochloride]",> 250 °C,6.00 to 7.00
"Cc1cc(O[C@@H](C)C2CCOCC2)cc2c(=O)[nH]c(-c3cc4ccsc4cn3)nc12 [Compound 110-S, S-8-Methyl-6-[1-(tetrahydro-pyran-4-yl)-ethoxy]-2-thieno[2,3-c]pyridin-5-yl-3H-quinazolin-4-one]",150 to 180 °C,≥ 7.00
"Cc1cc(O[C@@H](C)C2CCOCC2)cc2c(=O)[nH]c(-c3cc(C(F)(F)F)ccn3)nc12 [Compound 111-S, S-8-Methyl-6-[1-(tetrahydro-pyran-4-yl)-ethoxy]-2-(4-trifluoromethyl-pyridin-2-yl)-3H-quinazolin-4-one]",120 to 132 °C,6.00 to 7.00
"Cc1cc(OCC2(F)CCOC2)cc2c(=O)[nH]c(-c3cc(C(F)(F)F)ccn3)nc12 (stereo not shown) [Compound 112, 6-[(3-fluorotetrahydrofuran-3-yl)methoxy]-8-methyl-2-[4-(trifluoromethyl)-2-pyridyl]-3H-quinazolin-4-one]",188 to 195 °C,≥ 7.00
"CCC(=O)N1CC(Oc2cc(C)c3nc(-c4cc5ccsc5cn4)[nH]c(=O)c3c2)C1 [Compound 116, 8-methyl-6-(1-propanoylazetidin-3-yl)oxy-2-thieno[2,3-c]pyridin-5-yl-3H-quinazolin-4-one]",230 to 240 °C,6.00 to 7.00
"Cc1cc(OC2CCC(=O)N(C)C2)cc2c(=O)[nH]c(-c3cc4cccn4cn3)nc12 (stereo not shown) [Compound 118, 8-Methyl-6-[(1-methyl-6-oxo-3-piperidyl)oxy]-2-pyrrolo[1,2-c]pyrimidin-3-yl-3H-quinazolin-4-one]",220 to 230 °C,≥ 7.00
"Cc1cc(N2CCC3(CCOCC3)CC2)cc2c(=O)[nH]c(-c3cc4sccc4cn3)nc12 [Compound 120, 8-Methyl-6-(3-oxa-9-azaspiro[5.5]undecan-9-yl)-2-(thieno[3,2-c]pyridin-6-yl)quinazolin-4(3H)-one]",> 250 °C,≥ 7.00
"Cc1cc(CCN2CCCOCC2)cc2c(=O)[nH]c(-c3cnc4ccsc4c3)nc12.Cl [Compound 122, 8-Methyl-6-(2-[1,4]oxazepan-4-yl-ethyl)-2-thieno[3,2-b]pyridin-6-yl-3H-quinazolin-4-one hydrochloride]",> 250 °C,≥ 7.00
"Cc1cc(CCN2CCOCC2)cc2c(=O)[nH]c(-c3cc4sccc4cn3)nc12.Cl [Compound 123, 8-Methyl-6-(2-morpholin-4-yl-ethyl)-2-thieno[3,2-c]pyridin-6-yl-3H-quinazolin-4-one hydrochloride]",> 250 °C,≥ 7.00
"Cc1cc(CN2CCOCC2)cc2c(=O)[nH]c(-c3cc4cccn4cn3)nc12.Cl [Compound 125, 8-Methyl-6-(morpholinomethyl)-2-pyrrolo[1,2-c]pyrimidin-3-yl-3H-quinazolin-4-one hydrochloride]",> 250 °C,≥ 7.00
"Cc1cc(CC(=O)N2CCOCC2)cc2c(=O)[nH]c(-c3cc4ccsc4cn3)nc12 [Compound 127, 8-Methyl-6-(2-morpholino-2-oxo-ethyl)-2-thieno[2,3-c]pyridin-5-yl-3H-quinazolin-4-one]",> 250 °C,6.00 to 7.00

# Further lines, results first:
melting point,pEC50 [1],SMILES
> 250 °C,5.00 to 6.00,"Cl.O=c1[nH]c(-c2cc3ccccc3cn2)nc2ccc(OCCCc3ccncc3)cc12 [Compound 2, 2-Isoquinolin-3-yl-6-(3-pyridin-4-yl-propoxy)-3H-quinazolin-4-one hydrochloride]"
> 250 °C,6.00 to 7.00 and > 6.00,"Cl.O=c1[nH]c(-c2cc3sccc3cn2)nc2ccc(OCCCc3ccncc3)cc12 [Compound 3, 6-(3-Pyridin-4-yl-propoxy)-2-thieno[3,2-c]pyridin-6-yl-3H-quinazolin-4-one hydrochloride]"
> 250 °C,–,Cl.O=c1[nH]c(-c2cc3ccsc3cn2)nc2ccc(OCCCc3ccncc3)cc12 [Compound 4]
> 250 °C,6.00 to 7.00 and > 6.00,"Cl.O=c1[nH]c(-c2ccccn2)nc2ccc(OCCCc3ccncc3)cc12 [Compound 5, 2-Pyridin-2-yl-6-(3-pyridin-4-yl-propoxy)-3H-quinazolin-4-one hydrochloride]"
> 250 °C,5.00 to 6.00,"COc1ccnc(-c2nc3ccc(OCCCc4ccncc4)cc3c(=O)[nH]2)c1.Cl [Compound 7, 2-(4-methoxy-pyridin-2-yl)-6-(3-pyridin-4-yl-propoxy)-3H-quinazolin-4-one hydrochloride]"
> 250 °C,5.00 to 6.00,"Cl.O=c1[nH]c(-c2ccc(F)cn2)nc2ccc(OCCCc3ccncc3)cc12 [Compound 8, 2-(5-Fluoro-pyridin-2-yl)-6-(3-pyridin-4-yl-propoxy)-3H-quinazolin-4-one hydrochloride]"
149 to 154 °C,6.00 to 7.00,"Cl.O=c1[nH]c(-c2cc3sccc3cn2)nc2ccc(OCCCc3cccnc3)cc12 [Compound 37, 6-(3-Pyridin-3-yl-propoxy)-2-thieno[3,2-c]pyridin-6-yl-3H-quinazolin-4-one hydrochloride]"
236 to 237 °C,6.00 to 7.00,"CS(=O)(=O)c1ccc(CCCOc2ccc3nc(-c4cc5ccsc5cn4)[nH]c(=O)c3c2)cc1 [Compound 60, 6-[3-(4-Methanesulfonyl-phenyl)-propoxy]-2-thieno[2,3-c]pyridin-5-yl-3H-quinazolin-4-one]"
230 to 240 °C,6.00 to 7.00,"Cl.O=c1[nH]c(-c2cc3ccsc3cn2)nc2ccc(OCCCc3cnccn3)cc12 [Compound 61, 6-(3-Pyrazin-2-yl-propoxy)-2-thieno[2,3-c]pyridin-5-yl-3H-quinazolin-4-one hydrochloride]"
250 to 251 °C,6.00 to 7.00,"COc1cnccc1CCCOc1ccc2nc(-c3cc4ccsc4cn3)[nH]c(=O)c2c1.Cl [Compound 62, 6-[3-(3-Methoxy-pyridin-4-yl)-propoxy]-2-thieno[2,3-c]pyridin-5-yl-3H-quinazolin-4-one hydrochloride]"
197 to 199 °C,6.00 to 7.00,"O=c1[nH]c(-c2cc3ccsc3cn2)nc2ccc(OCCCc3cocn3)cc12 [Compound 64, 6-(3-Oxazol-4-yl-propoxy)-2-thieno[2,3-c]pyridin-5-yl-3H-quinazolin-4-one]"
